Experimental data: patent US7199143B2, “Chemical compounds” (AstraZeneca AB, priority 2002, dated 2007)
Values after ≈ are worked out from the molar mass of the structure shown.

How the values were obtained:
[1] = tested on: Staphylococcus aureus MRQR (methicillin resistant and quinolone resistant); assay: MIC, agar-dilution, staphylococci; type: cell-based; conditions: 10^4 CFU/spot, 37° C., 24 hours
Procedure: (§1) The following results were obtained on a standard in-vitro test system. The activity is described in terms of the minimum inhibitory concentration (MIC) determined by the agar-dilution technique with an inoculum size of 10^4 CFU/spot. Typically, compounds are active in the range 0.01 to 256 μg/ml.
(§2) Staphylococci were tested on agar, using an inoculum of 10^4 CFU/spot and an incubation temperature of 37° C. for 24 hours—standard test conditions for the expression of methicillin resistance.

[2] = tested on: Staphylococcus aureus MSQS (methicillin sensitive and quinolone sensitive); assay: MIC, agar-dilution, staphylococci; type: cell-based; conditions: 10^4 CFU/spot, 37° C., 24 hours
Procedure: as §1, §2

Streptococcus pneumoniae = assay: MIC, agar with 5% defibrinated horse blood; type: cell-based; conditions: agar + 5% horse blood, 5% carbon dioxide, 48 hours
Procedure: as §1
(§3) Streptococci and enterococci were tested on agar supplemented with 5% defibrinated horse blood, an inoculum of 10^4 CFU/spot and an incubation temperature of 37° C. in an atmosphere of 5% carbon dioxide for 48 hours—blood is required for the growth of some of the test organisms. Fastidious Gram negative organisms were tested in Mueller-Hinton broth, supplemented with hemin and NAD, grown aerobically for 24 hours at 37° C., and with an innoculum of 5×10^4 CFU/well.

Streptococcus pyogenes = assay: MIC, agar with 5% defibrinated horse blood; type: cell-based; conditions: agar + 5% horse blood, 5% carbon dioxide, 48 hours
Procedure: as §1, §3

Haemophilus influenzae = assay: MIC, fastidious Gram negative organisms, Mueller-Hinton broth; type: cell-based; conditions: Mueller-Hinton broth with hemin and NAD, 24 hours, 5×10^4 CFU/well
Procedure: as §1, §3

Moraxella catarrhalis = assay: as above; type: cell-based; conditions: Mueller-Hinton broth with hemin and NAD, 24 hours, 5×10^4 CFU/well
Procedure: as §1, §3

MAO-A = biological target: T1, MAO-A (Homo sapiens, UniProt P21397); assay: MAO-A standard in-vitro assay, human liver enzyme expressed in yeast; type: biochemical
T1 construct: made in house; host or cells: yeast
T1 sequence (P21397 1-527): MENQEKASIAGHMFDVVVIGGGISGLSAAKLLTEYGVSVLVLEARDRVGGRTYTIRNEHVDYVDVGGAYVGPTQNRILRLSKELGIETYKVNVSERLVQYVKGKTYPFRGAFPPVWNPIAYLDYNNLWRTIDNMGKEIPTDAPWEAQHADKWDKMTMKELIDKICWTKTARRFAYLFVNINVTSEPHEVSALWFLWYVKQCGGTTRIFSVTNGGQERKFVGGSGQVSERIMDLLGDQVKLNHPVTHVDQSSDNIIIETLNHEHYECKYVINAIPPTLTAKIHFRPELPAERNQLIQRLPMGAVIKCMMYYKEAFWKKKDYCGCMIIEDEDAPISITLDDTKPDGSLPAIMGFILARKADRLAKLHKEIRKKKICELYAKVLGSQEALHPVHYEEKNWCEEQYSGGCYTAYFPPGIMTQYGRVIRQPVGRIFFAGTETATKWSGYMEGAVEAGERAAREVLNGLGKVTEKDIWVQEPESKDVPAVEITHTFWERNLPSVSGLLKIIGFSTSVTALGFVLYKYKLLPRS
Procedure: The activity of the compounds of the invention against MAO-A was tested using a standard in-vitro assay based on human liver enzyme expressed in yeast as described in Biochem. Biophys. Res. Commun. 1991, 181, 1084–1088.

MIC [1]: 8 µg/mL (≈ 18.5 µM)
MIC [2]: 4 µg/mL (≈ 9.27 µM)
MIC (Streptococcus pneumoniae): 2 µg/mL
MIC (Streptococcus pyogenes): 2 µg/mL
MIC (Haemophilus influenzae): 2 µg/mL (≈ 4.64 µM)
MIC (Moraxella catarrhalis): 4 µg/mL (≈ 9.27 µM)
Ki (MAO-A): > 410 µM
Compound: [N-]=[N+]=NCc1cn(C[C@H]2CN(c3ccc(C4=CC[S+]([O-])CC4)c(F)c3)C(=O)O2)nn1 (stereo partly drawn) [Example 3, (5R)-3-[4-(1(R,S)-Oxo-3,6-dihydro-2H-thiopyran-4-yl)-3-fluorophenyl]-5-[(4-azidomethyl)-1,2,3-triazol-1-ylmethyl]oxazolidin-2-one]
